Literature values, collected in patent publication US20200392071A1, “Gene cluster for the biosynthetic production of tetracycline compounds in a heterologous host” (HELMHOLTZ-ZENTRUM FÜR INFEKTIONSFORSCHUNG GMBH, priority 2017, published 2020).

Key:
[1] = tested on: Gram-negative pathogens; settings: patients with urinary tract infections caused by Gram-negative pathogens; Molnar et al. 1977
[2] = tested on: tetracycline-resistant pathogens; settings: Proctor et al. 1978

In the case of `CC(=O)C1=C(O)C(N)C2Cc3c(c(O)c4c(O)c(C)ccc4c3C)C(=O)C2(O)C1=O` (centres unmarked) [chelocardin, Chelocardin], the “outcome in a small phase II clinical study” value [1] is given as “promising” and the “activity against tetracycline-resistant pathogens” value [2] is given as “active”.
